Source: patent US6172205A, “Synthetic process toward total synthesis of eleutherobin and its analogues and uses thereof” (The Trustees of Columbia in the City of New York, priority 1998, dated 2001)
Several values for one entry are separate records, joined by “and”; a condition that tells them apart may be missing. Identical values can stand only once. Entries after “also recorded” stand apart in the source; their conditions may differ. Like-named read-outs stand apart in the source and are kept apart here.

How the values were obtained:
[1] = test system: Human non-small cell lung carcinoma cells, A549; assay: Cytotoxicity by counting cells after 72 h, Taxol-sensitive cells; format: cell-based; conditions: for IC50: Homo sapiens
Procedure: Taxol-resistant and sensitive cell lines were seeded into 12-well plates at a density of 5×10^4 cells per well and allowed a period of 12 h for attachment prior to treatment. […] Cells were then trypsinized and counted (Coulter counter model ZF0031, Coulter Corp., Miami, Fla.).

[2] = test system: Human ovarian carcinoma cells SKOV3; assay: as above; format: cell-based
Procedure: (§1) Human non-small cell lung carcinoma cells, A549, were maintained in RPMI 1640 containing 10% fetal bovine serum and 1% penicillin-streptomycin (Gibco Laboratories, Grand Island N.Y.) at 37° C. in 7% CO2. The Taxol-resistant cell line A549-T12 was selected for resistance to Taxol and maintained in a final concentration of 12 nM drug (21). Human ovarian carcinoma cells SKOV3 and the MDR variant SKVBL (obtained from Dr. V. Ling) were maintained in α-mem plus ribonucleotides, deoxynucleotides, 15% fetal bovine serum and 1% penicillin-streptomycin (Gibco Laboratories) at 37° C. in 5% CO2. SKVBL cells were maintained in […] vinblastine (Sigma Chemical Co.).
(§2) Taxol-resistant and sensitive cell lines were seeded into 12-well plates at a density of 5×10^4 cells per well and allowed a period of 12 h for attachment prior to treatment. Cells were exposed to 10-fold serial dilutions of each compound (10^-10 to 10^-6 M) for 72 h. Cells were then trypsinized and counted (Coulter counter model ZF0031, Coulter Corp., Miami, Fla.). The IC50 was determined by plotting cell number against log of the drug concentration and this was used to determine the concentration of compound resulting in 50% growth inhibition compared to untreated cells. Each cell line was assayed in a minimum of 3 independent experiments with each compound and the results expressed as the mean IC50.
(§3) ^a Cytotoxicity determined by counting cells after 72 h drug exposure.

[3] = test system: tubulin / microtubule protein; assay: Tubulin polymerization by turbidity at 350 nm in the absence of GTP; format: biochemical, calf; conditions: 10 μM; for tubulin polymerization (in words): 37 °C, absence of GTP
Procedure: (§4) Eleutherobin and its derivatives were synthesized as described (18,19). Taxol was obtained from the Drug Development Branch, National Cancer Institute (Bethesda, Md.). All compounds were dissolved in dimethyl sulfoxide (Sigma Chemical Co., St. Louis, Mo.) at stock concentrations of 5 mM and stored at -20° C. All control samples contained an equal volume of DMSO. GTP was obtained from Sigma Chemical Co. And dissolved in sterile distilled water at a concentration of 10 mM and stored at -20° C. Microtubule protein was purified from calf brains by two cycles of temperature-dependent assembly and disassembly (20) and stored in liquid nitrogen prior to use. The anti-mouse β-tubulin monoclonal antibody T-4026 was obtained from Sigma Chemical Co.
The ability of each compound to polymerize tubulin was evaluated by recording the change in turbidity of microtubule protein at 350 nm for 80 min in a spectrophotometer (UVIKON, Research Instruments Int., SD, Calif.). One mg of purified microtubule protein was diluted in assembly buffer containing 0.1 M MES, 1 mM EGTA, 0.5 mM MgCl2 and 3 M glycerol, pH 6.6. All compounds were evaluated at a concentration of 10 μM at 37° C. […] Microtubule stability was assessed by the addition of 10 mM Ca^++. changes from t=0-10 min were used to calculate initial slopes from the linear portion of each curve. These values were used to calculate the activity of each compound (relative to the activity of Taxol which was assigned a value of 100%).
The polymerization activity of these compounds was also assessed by determining the slope of the linear portion of each curve at A350 nm (t=0-10 min), and expressing this relative to Taxol (which was assigned a value of 100% (FIG. 8). The order of activity of eleutherobin and derivatives using this method, corroborates the results obtained from cytotoxicity studies.

[4] = test system: microtubule protein; assay: Stability of microtubules against Ca++-induced depolymerization; format: biochemical, calf; conditions: 10 mM CaCl2
Procedure: as §4
(§5) The ability of each compound to polymerize tubulin was evaluated by recording the change in turbidity of microtubule protein at 350 nm for 80 min in a spectrophotometer (UVIKON, Research Instruments Int., SD, Calif.). One mg of purified microtubule protein was diluted in assembly buffer containing 0.1 M MES, 1 mM EGTA, 0.5 mM MgCl2 and 3 M glycerol, pH 6.6. All compounds were evaluated at a concentration of 10 μM at 37° C. GTP was used at a final concentration of 1 mM. Microtubule stability was assessed by the addition of 10 mM Ca^++. changes from t=0-10 min were used to calculate initial slopes from the linear portion of each curve. These values were used to calculate the activity of each compound (relative to the activity of Taxol which was assigned a value of 100%).
The ability of each compound to polymerize and/or stabilize microtubules was assessed (FIG. 7). To investigate whether eleutherobin and its derivatives shared the microtubule stabilizing properties of Taxol, 10 mM CaCl2 was added to each sample after maximum microtubule polymerization occurred, and the effects on turbidity recorded spectrophotometrically. A positive control was included in which 1 mM GTP was used to confirm the ability of GTP-stabilized microtubules to undergo Ca^++ induced depolymerization.
The ability of this compound to stabilize microtubules formed in the presence of GTP was examined. After a period of 15 min, 10 mM Ca^++ was added and the change in turbidity recorded.

[5] = test system: cellular microtubules, NIH 3T3 cells; assay: Microtubule bundle formation by immunofluorescence; format: cell-based; conditions: 2 μM, 5.5 h; for microtubule bundle formation (in words): 37 °C
Procedure: FIG. 9 immunofluorescence images NIH3T3 cells labeled with β-tubulin antibody following exposure to different drugs. A)DMSO; B)2 μM Taxol; C)2 μM eleutherobin; D)2 μM neo-eleutherobin; E)2 μM SKBII.294; F)2 μM SKBIII.13.
Illustrates the effects of eleutherobin and its derivatives on the morphology of cellular microtubules following exposure of cells to 2 μM of each compound for 5.5 h at 37° C. […] The number of micotic asters correlated with the extent of microtubule bundling in interphase cells.
(§6) NIH 3T3 cells were grown to subconfluency on glass converslips in 35 mm plastic petri dishes. Cells were exposed to 2 μM of Taxol and each of the experimental compounds for 5.5 h at 37° C., rinsed twice in PBS and extracted with 0.5% Triton-X-100 in microtubule stabilizing buffer (PEM) (100 mM PIPES, 2 mM EGTA and 2 mM MgCl2, pH 6.8) for 4 min. Following a wash in PEM, the cells were fixed for 40 min at room temperature in 3% formaldehyde in PEM followed by incubation in 0.1 M glycine in PBS for 10 min and washing (four times) in PEM containing 5 μM EGTA. Following blocking in 20% normal goat serum (NGS) for 30 min at room temperature, cells were incubated for 1 h at 37° C. with a 1:100 dilution of β-tubulin mAb diluted in 10% NGS, washed twice in 1% BSA, once in PBS and three times in 1% BSA. Cells were then incubated in a 1:200 dilution of the secondary fluorophore antibody, IndocarbocyanineCY3 (Jackson Immunoresearch Laboratories Inc., Pa.) in 20% NGS for 20 min at room temperature. Finally cells were washed three times in 1% BSA and the dried slides mounted in 30% glycerol in PBS containing […]-phenylene diamine (1 mg/ml). Fixed slides were examined using a Zeiss Axioskop microscope.

[6] = Overall biological activity, all parameters tested
Procedure: as §2, §5, §6

[7] = test system: A549-T12 (Taxol-resistant A549); assay: Cytotoxicity by counting cells after 72 h, Taxol-resistant cells; format: cell-based, human; conditions: for fold resistance relative to the parental cell line: A549-T12 vs A549, 4320 min; for IC50: Homo sapiens, Lung Carcinoma A549, Resistant (A549-T12), 72 h, mean of at least three independent experiments; for cross-resistance in A549-T12 (in words): Taxol-resistant, not expressing P-glycoprotein
Procedure: as §1, §2
(§7) The cytotoxic efficacy of eleutherobin and its derivatives (FIG. 6) was evaluated in two drug sensitive human cancer cell lines and their Taxol-resistant counterparts. The results are summarized in Table I in order of decreasing potency. […] The Taxol-resistant cell line SKVBL overexpresses high levels of P-glycoprotein (22). […] The only difference between the two agents is the enantiomeric relationship in the carbohydrate (2'-acetylarabinose) sector (FIG. 6). […] This cell line expressed high levels of MDR1 resulting in Taxol-resistance equal or greater than 1666 -fold compared to the Taxol-sensitive SKOV3 cell line.
as §3

[8] = test system: SKVBL (MDR variant of SKOV3); assay: Cytotoxicity by counting cells after 72 h, MDR variant cells; format: cell-based, human; conditions: for IC50: Homo sapiens, SK-OV-3, Ovarian Carcinoma SKOV3, Resistant (SKVBL), 72 h, mean of at least three independent experiments; for cross-resistance in SKVBL (in words): MDR1 expressing cells, high P-glycoprotein; for fold resistance relative to the parental cell line: SKVBL vs SKOV3
Procedure: as §1, §2, §7, §3

[9] = test system: P-glycoprotein; assay: P-glycoprotein substrate behaviour inferred from resistance of SKVBL cells; format: cell-based, human
Procedure: as §1, §2, §7

[10] = Solubility compared to eleutherobin; format: physicochemical
[11] = sensitive cell lines (A549, SKOV3)

SMILES | cytotoxicity (in words) [1, 11] | stabilization against Ca++-induced depolymerization (in words) [4] | microtubule bundle formation (in words) [5] | biological activity (in words) [6] | IC50 ([1]; A549, 72 h) [µM] | fold resistance relative to the parental cell line [7] | IC50 [7] [µM] | cross-resistance in A549-T12 (in words) [7] | IC50 ([2]; SK-OV-3, 72 h) [µM] | IC50 [8] [µM] | cross-resistance in SKVBL (in words) [8] | microtubule polymerization activity relative to eleutherobin [3] [%] | P-glycoprotein substrate (in words) [9] | fold resistance relative to the parental cell line [8] [fold] | other results
CO[C@]12C=C[C@](C)(O1)[C@@H](O)C[C@H]1C(C)=CC[C@H](C(C)C)[C@H]1C=C2CO[C@@H]1OC[C@@H](O)[C@@H](O)[C@@H]1O [SKBIII.13] | its cytotoxicity is greatly reduced | unable to stabilize GTP-polymerized microtubules against Ca^++ induced depolymerization | a fine microtubule network without bundle formation | basically inactive by all parameters tested |  |  |  |  |  |  |  |  |  |  | IC50 ([1]; Lung Carcinoma A549, Sensitive, 72 h, mean of at least three independent experiments, read-out: IC50): 4.15 µM; IC50 ([2]; SK-OV-3, Ovarian Carcinoma SKOV3, Sensitive, 72 h, mean of at least three independent experiments, read-out: IC50): > 5 µM; tubulin polymerization (in words) [3]: inactive in tubulin polymerization assays; tubulin polymerization (in words) ([3]; listed as SKBII.13): forfeited the ability to polymerize microtubules; biological activity (in words) ([6]; listed as SKBII.13): biologically inactive
CO[C@]12C=C[C@](C)(O1)[C@@H](OC(=O)/C=C/c1cn(C)cn1)C[C@H]1C(C)=CC[C@H](C(C)C)[C@H]1C=C2CO[C@H]1OC[C@H](O)[C@H](O)[C@H]1OC(C)=O [Neo-Eleutherobin] |  | the microtubules formed also resisted Ca^++ -induced depolymerization | the extent of bundling was reduced | less active than eleutherobin in all of the parameters examined | 0.125 | 1.2 fold | 0.146 | neither eleutherobin nor neo-eleutherobin displayed cross-resistance; also recorded: neither of these compounds showed cross-resistance | 0.134 | > 1 | exhibited cross-resistance in an MDR1 expressing cell line; also recorded: demonstrated cross-resistance | 69 | excellent substrates for P-glycoprotein |  | fold less active / less cytotoxic than eleutherobin [1, 11]: 20 fold and 14-20 fold; multiple asters in mitotic cells ([5]; data not shown): also seen in eleutherobin and neo-eleutherobin-treated cells
CO[C@]12C=C[C@@H]3[C@@H](C(C)C)CC=C(C)[C@@H]3C[C@H](OC(=O)/C=C/c3cn(C)cn3)[C@](C)(C=C1)O2 [SKBII.296] | less cytotoxic than either eleutherobin or neo-eleutherobin |  | reduced bundle formation in cultured cells; also recorded: induced less bundle formation than neo-eleutherobin |  | 0.4 | 10 fold | 4 | considerable cross-resistance | 1.63 | 1.35 | no cross resistance to SKVBL cells | 54 | considerably less attractive for P-glycoprotein compared to eleutherobin and neo-eleutherobin | 0.8 | solubility (in words) [10]: reduced solubility compared to eleutherobin
CC(=O)O[C@H]1C(=O)[C@@]2(C)[C@H]([C@H](OC(=O)c3ccccc3)[C@]3(O)C[C@H](OC(=O)[C@H](O)[C@@H](NC(=O)c4ccccc4)c4ccccc4)C(C)=C1C3(C)C)[C@]1(OC(C)=O)CO[C@@H]1C[C@@H]2O [Taxol, reference compound] |  | stabilized microtubules against Ca^++ -induced depolymerization | identical to that seen in Taxol-treated cells |  | 0.002 | 7 fold and 7.1 fold | 0.0142 |  | 0.003 | > 5 |  |  | excellent substrates for P-glycoprotein | ≥ 1666 | 
